Data as given in US20260193293A1, “PEPTIDES CAPABLE OF INHIBITING PROTEIN-PROTEIN INTERACTIONS AT GABAB1A SUBUNIT AND USES THEREOF” (UNIVERSITY OF COPENHAGEN, priority 2022, published 2026).
Read-outs that look alike come from different tables or passages of the source. Residues, ends and D or L forms follow the SMILES beside them.

Target: Sushi domains (SD1/2) protein
Test: Fluorescence polarization (FP) competition assay with AJAP-1probe, calculated Ki
Format: binding
In short: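 Ki values were derived from IC50s (sigmoidal fits, ≥ triplicate), with probe Kd obtained by saturation titration of SD1/2. Peptides displaced a 25 nM TAMRA-labelled probe; polarization read at 530/580 nm in 1% BSA-containing PBS, pH 7.4, room temperature.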

[1] = Table 11, deep mutational scanning validation variants of AJAP-1WT, read-out: Ki (nM) mean ± SEM
[2] = Table 4, truncation and elongation scans of APP epitope, read-out: Ki (nM) mean ± SEM
[3] = Table 6, elongation and truncation scan of PIANP binding epitope, read-out: Ki (nM) mean ± SEM
[4] = Table 5, elongation and truncation scan of AJAP-1 binding epitope, read-out: Ki (nM) mean ± SEM

CC[C@H](C)[C@H](NC(=O)[C@H](Cc1ccccc1)NC(=O)[C@H](CC(=O)O)NC(=O)[C@@H](NC(=O)[C@H](CCC(=O)O)NC(C)=O)[C@@H](C)O)C(=O)N[C@@H](C)C(=O)N[C@@H](Cc1c[nH]c2ccccc12)C(=O)NCC(=O)N1CCC[C@H]1C(=O)N[C@H](C(=O)NCC(=O)N[C@@H](CC(=O)O)C(=O)N[C@@H](CCC(=O)O)C(=O)N[C@@H](CC(=O)O)C(N)=O)[C@@H](C)O [ETDFIAWGPTGDED] (Ac-ETDFIAWGPTGDED-NH2)
Ki [1]: 26 ± 1 nM

CC(=O)N[C@@H](CCC(=O)O)C(=O)N[C@@H](CCC(=O)O)C(=O)N[C@@H](CC(=O)O)C(=O)N[C@@H](CC(=O)O)C(=O)N[C@@H](CO)C(=O)N[C@@H](CC(=O)O)C(=O)N[C@H](C(=O)N[C@@H](Cc1c[nH]c2ccccc12)C(=O)N[C@@H](Cc1c[nH]c2ccccc12)C(=O)NCC(=O)NCC(N)=O)C(C)C (Ac-EEDDSDVWWGG-NH2)
Ki [2]: 1754 ± 7 nM

CC[C@H](C)[C@H](NC(=O)[C@H](Cc1ccccc1)NC(=O)[C@H](CCC(=O)O)NC(=O)[C@@H](NC(=O)[C@H](CCC(=O)O)NC(C)=O)[C@@H](C)O)C(=O)N[C@@H](C)C(=O)N[C@@H](Cc1c[nH]c2ccccc12)C(=O)NCC(=O)N1CCC[C@H]1C(=O)N[C@H](C(=O)NCC(=O)N[C@@H](CC(=O)O)C(=O)N[C@@H](CC(N)=O)C(=O)N[C@@H](CC(=O)O)C(N)=O)[C@@H](C)O
Ki [1]: 39 ± 1 nM

CC[C@H](C)[C@H](NC(=O)[C@H](Cc1c[nH]c2ccccc12)NC(=O)[C@H](CC(=O)O)NC(=O)[C@H](CC(=O)O)NC(=O)[C@H](CC(=O)O)NC(=O)[C@H](CCC(=O)O)NC(C)=O)C(=O)N[C@@H](CC(=O)O)C(=O)N[C@@H](Cc1c[nH]c2ccccc12)C(=O)NCC(=O)N1CCC[C@H]1C(=O)N[C@H](C(=O)N[C@@H](CO)C(=O)N[C@@H](CC(=O)O)C(=O)N[C@@H](CC(=O)O)C(=O)N[C@@H](CC(=O)O)C(=O)N[C@@H](CCC(=O)O)C(=O)N[C@@H](C)C(=O)N[C@@H](C)C(=O)N[C@@H](C)C(=O)N[C@@H](CCCCN)C(=O)N[C@@H](CCCNC(=N)N)C(=O)N[C@@H](CCCNC(=N)N)C(=O)N[C@@H](CCCNC(=N)N)C(=O)N[C@@H](CCCNC(=N)N)C(=O)N[C@@H](CCCNC(=N)N)C(=O)N[C@@H](CCCNC(=N)N)C(=O)N[C@@H](CCCNC(=N)N)C(=O)N[C@@H](CCCNC(=N)N)C(N)=O)[C@@H](C)O [Peptide 17-RL-R8] (Ac-EDDDWIDWGPTSDDDEAAAKRRRRRRRR-NH2)
Ki (CPP tagged peptides overview, SD1/2 binding affinity, mean ± SEM, n ≥ 3, read-out: Ki): 139 ± 2 nM
Ki (Table 14, CPPs tagged peptides, read-out: Ki (nM) mean ± SEM): 139 ± 2 nM

CC[C@H](C)[C@H](NC(=O)[C@H](C)NC(=O)[C@H](Cc1c[nH]c2ccccc12)NC(=O)[C@@H]1CCCN1C(C)=O)C(=O)N[C@H](C(=O)N[C@@H](C)C(=O)NCC(=O)N1CCC[C@H]1C(=O)N[C@H](C(=O)N[C@H](C(=O)N[C@@H](CO)C(=O)N[C@@H](CCCNC(=N)N)C(=O)N[C@@H](CCC(=O)O)C(=O)N[C@@H](CC(=O)O)C(N)=O)C(C)C)[C@@H](C)O)C(C)C [PWAIVAGPTVSRED] (Ac-PWAIVAGPTVSRED-NH2)
Ki (Table 9, cells printed in μM, read-out: Ki (nM) mean ± SEM): > 62500 nM

CC(=O)N[C@@H](CCC(=O)O)C(=O)N[C@@H](CCC(=O)O)C(=O)N[C@@H](CC(=O)O)C(=O)N[C@@H](CC(=O)O)C(=O)N[C@@H](CO)C(=O)N[C@@H](CC(=O)O)C(=O)N[C@H](C(=O)N[C@@H](Cc1c[nH]c2ccccc12)C(=O)N[C@@H](Cc1c[nH]c2ccccc12)C(=O)NCC(=O)NCC(=O)N[C@@H](C)C(=O)N[C@@H](CC(=O)O)C(=O)N[C@H](C(=O)N[C@@H](CC(=O)O)C(=O)N[C@@H](Cc1ccc(O)cc1)C(=O)N[C@@H](C)C(N)=O)[C@@H](C)O)C(C)C (Ac-EEDDSDVWWGGADTDYA-NH2)
Ki [2]: 299 ± 8 nM

CC[C@H](C)[C@H](NC(=O)[C@H](Cc1ccccc1)NC(=O)[C@H](CCC(=O)O)NC(=O)[C@@H](NC(=O)[C@H](CCC(=O)O)NC(C)=O)[C@@H](C)O)C(=O)N[C@@H](C)C(=O)N[C@@H](Cc1c[nH]c2ccccc12)C(=O)NCC(=O)N1CCC[C@H]1C(=O)N[C@H](C(=O)NCC(=O)N[C@@H](CC(=O)O)C(=O)N[C@@H](Cc1ccc(O)cc1)C(=O)N[C@@H](CC(=O)O)C(N)=O)[C@@H](C)O (Ac-ETEFIAWGPTGDYD-NH2)
Ki [1]: 40 ± 1 nM

CC[C@H](C)[C@H](NC(=O)[C@H](Cc1ccccc1)NC(=O)[C@H](CCC(=O)O)NC(=O)[C@@H](NC(=O)[C@H](CCC(=O)O)NC(C)=O)[C@@H](C)O)C(=O)N[C@@H](C)C(=O)N[C@@H](C)C(=O)NCC(=O)N1CCC[C@H]1C(=O)N[C@H](C(=O)NCC(=O)N[C@@H](CC(=O)O)C(=O)N[C@@H](CCC(=O)O)C(=O)N[C@@H](CC(=O)O)C(N)=O)[C@@H](C)O [ETEFIAAGPTGDED] (Ac-ETEFIAAGPTGDED-NH2)
Ki (Table 8, in μM, read-out: Ki (nM) mean ± SEM): > 6250 nM

CC[C@H](C)[C@H](NC(=O)[C@H](Cc1c[nH]c2ccccc12)NC(=O)[C@H](CO)NC(=O)[C@H](CC(=O)O)NC(=O)[C@H](CC(=O)O)NC(=O)[C@H](CCC(=O)O)NC(C)=O)C(=O)N[C@@H](Cc1c[nH]c2ccccc12)C(=O)N[C@@H](Cc1c[nH]c2ccccc12)C(=O)NCC(=O)N1CCC[C@H]1C(=O)N[C@H](C(=O)NCC(=O)N[C@@H](CC(=O)O)C(=O)N[C@@H](CCC(=O)O)C(=O)N[C@@H](CC(=O)O)C(N)=O)[C@@H](C)O [Peptide 27, Ac-EDDSWIWWGPTGDED-NH2] (Ac-EDDSWIWWGPTGDED-NH2)
Ki (Table 1, affinity maturation, mean ± SEM, n ≥ 3, read-out: Ki): 16 ± 1 nM
Ki (Table 13, peptides for affinity maturation, read-out: Ki (nM) mean ± SEM): 16 ± 1 nM
fold better affinity than 9 (comparator printed as 9): 3.8 fold

CC[C@H](C)[C@H](NC(=O)[C@H](Cc1ccccc1)NC(=O)[C@H](CCC(=O)O)NC(=O)[C@@H](NC(=O)[C@H](CCC(=O)O)NC(C)=O)[C@@H](C)O)C(=O)N[C@@H](C)C(=O)N[C@@H](Cc1c[nH]c2ccccc12)C(=O)NCC(=O)N1CCC[C@H]1C(=O)N[C@H](C(=O)NCC(=O)N[C@@H](CC(=O)O)C(=O)N[C@@H](CCC(=O)O)C(=O)N[C@H](C(N)=O)C(C)C)[C@@H](C)O (Ac-ETEFIAWGPTGDEV-NH2)
Ki [1]: 40 ± 2 nM

CC[C@H](C)[C@H](NC(=O)[C@H](C)NC(=O)[C@H](Cc1c[nH]c2ccccc12)NC(=O)[C@@H]1CCCN1C(C)=O)C(=O)N[C@H](C(=O)N[C@@H](Cc1c[nH]c2ccccc12)C(=O)NCC(=O)N1CCC[C@H]1C(=O)N[C@H](C(=O)N[C@H](C(=O)N[C@@H](CO)C(N)=O)C(C)C)[C@@H](C)O)C(C)C (Ac-PWAIVWGPTVS-NH2)
Ki [3]: 463 ± 10 nM

CC(=O)N[C@@H](CCC(=O)O)C(=O)N[C@@H](CCC(=O)O)C(=O)N[C@@H](CC(=O)O)C(=O)N[C@@H](CC(=O)O)C(=O)N[C@@H](CO)C(=O)N[C@@H](CC(=O)O)C(=O)N[C@H](C(=O)N[C@@H](Cc1c[nH]c2ccccc12)C(=O)N[C@@H](Cc1c[nH]c2ccccc12)C(=O)NCC(=O)NCC(=O)N[C@@H](C)C(=O)N[C@@H](CC(=O)O)C(=O)N[C@H](C(=O)N[C@@H](CC(=O)O)C(=O)N[C@@H](Cc1ccc(O)cc1)C(=O)N[C@@H](C)C(=O)N[C@@H](CC(=O)O)C(=O)NCC(=O)NCC(=O)N[C@@H](CCC(=O)O)C(=O)N[C@@H](CC(=O)O)C(=O)N[C@@H](CCCCN)C(N)=O)[C@@H](C)O)C(C)C (Ac-EEDDSDVWWGGADTDYADGGEDK-NH2)
Ki [2]: 392 ± 14 nM

CC[C@H](C)[C@H](NC(=O)[C@H](Cc1ccccc1)NC(=O)[C@H](CCC(=O)O)NC(=O)[C@@H](NC(=O)[C@H](CCC(=O)O)NC(C)=O)[C@@H](C)O)C(=O)N[C@@H](C)C(=O)N[C@@H](Cc1c[nH]c2ccccc12)C(=O)NCC(=O)N1CCC[C@H]1C(=O)N[C@@H](Cc1c[nH]cn1)C(=O)NCC(=O)N[C@@H](CC(=O)O)C(=O)N[C@@H](CCC(=O)O)C(=O)N[C@@H](CC(=O)O)C(N)=O [ETEFIAWGPHGDED] (Ac-ETEFIAWGPHGDED-NH2)
Ki [1]: 38 ± 1 nM

CC[C@H](C)[C@H](NC(=O)[C@H](CC(=O)O)NC(=O)[C@H](CO)NC(=O)[C@H](CC(=O)O)NC(=O)[C@H](CC(=O)O)NC(=O)[C@H](CCC(=O)O)NC(C)=O)C(=O)N[C@@H](Cc1c[nH]c2ccccc12)C(=O)N[C@@H](Cc1c[nH]c2ccccc12)C(=O)NCC(=O)NCC(=O)N[C@@H](C)C(=O)N[C@@H](CC(=O)O)C(=O)N[C@H](C(=O)N[C@@H](CC(=O)O)C(N)=O)[C@@H](C)O (Ac-EDDSDIWWGGADTD-NH2)
Ki (Table 10, deep mutational scanning validation variants of APPWT, read-out: Ki (nM) mean ± SEM): 401 ± 7 nM

CC(=O)N[C@@H](C)C(=O)N[C@@H](Cc1c[nH]c2ccccc12)C(=O)NCC(=O)N1CCC[C@H]1C(=O)N[C@H](C(=O)NCC(=O)N[C@@H](CC(=O)O)C(=O)N[C@@H](CCC(=O)O)C(=O)N[C@@H](CC(=O)O)C(N)=O)[C@@H](C)O [AWGPTGDED] (Ac-AWGPTGDED-NH2)
Ki [4]: > 125000 nM

CC[C@H](C)[C@H](NC(=O)[C@H](Cc1ccccc1)NC(=O)[C@H](CCC(=O)O)NC(=O)[C@@H](NC(=O)[C@H](CCC(=O)O)NC(=O)[C@@H](NC(C)=O)[C@@H](C)O)[C@@H](C)O)C(=O)N[C@@H](C)C(=O)N[C@@H](Cc1c[nH]c2ccccc12)C(=O)NCC(=O)N1CCC[C@H]1C(=O)N[C@H](C(N)=O)[C@@H](C)O (Ac-TETEFIAWGPT-NH2)
Ki [4]: 236 ± 9 nM

CC[C@H](C)[C@H](NC(=O)[C@H](C)NC(=O)[C@H](Cc1c[nH]c2ccccc12)NC(=O)[C@@H]1CCCN1C(C)=O)C(=O)N[C@H](C(=O)N[C@@H](Cc1c[nH]c2ccccc12)C(N)=O)C(C)C [PWAIVW] (Ac-PWAIVW-NH2)
Ki [3]: 706 ± 16 nM

CC(=O)N[C@@H](CC(=O)O)C(=O)N[C@@H](CO)C(=O)N[C@@H](C)C(=O)N[C@@H](CC(=O)O)C(=O)N[C@@H](C)C(=O)N[C@@H](CCC(=O)O)C(=O)N[C@@H](CCC(=O)O)C(=O)N[C@@H](CC(=O)O)C(=O)N[C@@H](CC(=O)O)C(=O)N[C@@H](CO)C(=O)N[C@@H](CC(=O)O)C(=O)N[C@H](C(=O)N[C@@H](Cc1c[nH]c2ccccc12)C(=O)N[C@@H](Cc1c[nH]c2ccccc12)C(=O)NCC(=O)NCC(=O)N[C@@H](C)C(=O)N[C@@H](CC(=O)O)C(=O)N[C@H](C(=O)N[C@@H](CC(=O)O)C(=O)N[C@@H](Cc1ccc(O)cc1)C(=O)N[C@@H](C)C(=O)N[C@@H](CC(=O)O)C(N)=O)[C@@H](C)O)C(C)C (Ac-DSADAEEDDSDVWWGGADTDYAD-NH2)
Ki [2]: 513 ± 17 nM
